Assay results: patent US20240270762A1, “PENICILLIN-BINDING PROTEIN INHIBITORS” (priority 2021, published 2024)
Values after ≈ are worked out from the molar mass of the structure shown. Read-outs that look alike come from different tables or passages of the source.

Assays:
[1] = target: T1, PBP3 from Escherichia coli (K-12) (Escherichia coli, UniProt P0AD68); assay: Bocillin-FL fluorescence polarization competition binding, E. coli PBP3
T1 construct: made in house
Method in brief: (§1)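 Purified PBPs pre-incubated with inhibitor (E. coli PBP3 1.5 μM, 30 min; P. aeruginosa PBP3 0.75 μM, A. baumannii PBP1a 1 μM and PBP3 0.2 μM, 15 min), then Bocillin-FL 0.1 μM (0.05 μM for PBP1a) added; FP read up to 60 min. EC50 = concentration halving bound Bocillin-FL.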

[2] = target: T2, PBP3 from Pseudomonas aeruginosa (PAO1) (Pseudomonas aeruginosa, UniProt G3XD46); assay: Bocillin-FL fluorescence polarization competition binding, P. aeruginosa PBP3; settings: Binding affinity to P. aeruginosa PBP3; fluorescence polarization competition binding assay using Bocillin-FL; read-out: P. aeruginosa PBP3 Potency
T2 construct: made in house
Method in brief: as §1

[3] = system: P. aeruginosa CDC-0054; assay: microbe, parasite or virus in culture; assay type: cell-based; settings: Pseudomonas aeruginosa, CDC0054, read-out: Minimum inhibitory concentration, P. aeruginosa CDC-0054
[4] = system: P. aeruginosa CDC-0095; assay: microbe, parasite or virus in culture; assay type: cell-based; settings: Pseudomonas aeruginosa, CDC0095, read-out: Minimum inhibitory concentration, P. aeruginosa CDC-0095
[5] = system: A. baumannii CDC-0033; assay: microbe, parasite or virus in culture; assay type: cell-based; settings: Acinetobacter baumannii, CDC0033, read-out: MIC, A. baumannii CDC-0033
[6] = system: N. gonorrhoeae ATCC 49226; assay: Liquid broth MIC in Fastidious broth; settings: Neisseria gonorrhoeae
[7] = system: N. gonorrhoeae FA1090; assay: Liquid broth MIC in Fastidious broth; settings: Neisseria gonorrhoeae
[8] = system: N. gonorrhoeae MS11; assay: Liquid broth MIC in Fastidious broth; settings: Neisseria gonorrhoeae
[9] = system: N. gonorrhoeae WHO G; assay: Liquid broth MIC in Fastidious broth; settings: Neisseria gonorrhoeae
[10] = system: N. gonorrhoeae WHO M; assay: Liquid broth MIC in Fastidious broth; settings: Neisseria gonorrhoeae
[11] = system: N. gonorrhoeae WHO K; assay: Liquid broth MIC in Fastidious broth; settings: Neisseria gonorrhoeae
[12] = system: N. gonorrhoeae WHO Z; assay: Liquid broth MIC in Fastidious broth; settings: Neisseria gonorrhoeae
[13] = ATCC49226, read-out: Minimum Inhibitory Concentration (MIC), N. gonorrhoeae ATCC 49226
[14] = FA1090, read-out: Minimum Inhibitory Concentration (MIC), N. gonorrhoeae FA 1090
[15] = MS11, read-out: Minimum Inhibitory Concentration (MIC), N. gonorrhoeae MS11
[16] = read-out: Minimum Inhibitory Concentration (MIC), N. gonorrhoeae WHO G
[17] = read-out: Minimum Inhibitory Concentration (MIC), N. gonorrhoeae WHO M
[18] = read-out: Minimum Inhibitory Concentration (MIC), N. gonorrhoeae WHO K
[19] = read-out: Minimum Inhibitory Concentration (MIC), N. gonorrhoeae WHO Z
[20] = ATCC49226, read-out: Minimum Inhibitory Concentration, ATCC 49226
[21] = FA1090, read-out: Minimum Inhibitory Concentration, FA 1090
[22] = MS11, read-out: Minimum Inhibitory Concentration, MS11
[23] = read-out: Minimum Inhibitory Concentration, WHO G
[24] = read-out: Minimum Inhibitory Concentration, WHO M
[25] = read-out: Minimum Inhibitory Concentration, WHO K
[26] = read-out: Minimum Inhibitory Concentration, WHO Z

T2 sequence (G3XD46 whole entry): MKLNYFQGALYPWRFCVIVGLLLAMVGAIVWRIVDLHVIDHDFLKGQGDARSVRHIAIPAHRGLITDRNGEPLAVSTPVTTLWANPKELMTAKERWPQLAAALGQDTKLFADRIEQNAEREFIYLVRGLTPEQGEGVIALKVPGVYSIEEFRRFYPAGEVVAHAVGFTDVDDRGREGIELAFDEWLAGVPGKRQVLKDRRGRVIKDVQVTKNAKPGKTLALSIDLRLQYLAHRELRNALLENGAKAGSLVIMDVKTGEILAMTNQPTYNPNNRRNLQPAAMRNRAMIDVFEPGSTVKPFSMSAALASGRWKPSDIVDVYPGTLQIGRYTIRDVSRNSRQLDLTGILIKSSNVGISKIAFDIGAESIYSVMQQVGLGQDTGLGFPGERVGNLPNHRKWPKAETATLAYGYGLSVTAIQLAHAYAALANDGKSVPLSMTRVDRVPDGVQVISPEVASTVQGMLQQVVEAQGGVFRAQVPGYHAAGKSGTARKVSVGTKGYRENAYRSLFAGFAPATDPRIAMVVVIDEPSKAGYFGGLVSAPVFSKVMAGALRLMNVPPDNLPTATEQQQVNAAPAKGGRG
T1 sequence (P0AD68 1-577): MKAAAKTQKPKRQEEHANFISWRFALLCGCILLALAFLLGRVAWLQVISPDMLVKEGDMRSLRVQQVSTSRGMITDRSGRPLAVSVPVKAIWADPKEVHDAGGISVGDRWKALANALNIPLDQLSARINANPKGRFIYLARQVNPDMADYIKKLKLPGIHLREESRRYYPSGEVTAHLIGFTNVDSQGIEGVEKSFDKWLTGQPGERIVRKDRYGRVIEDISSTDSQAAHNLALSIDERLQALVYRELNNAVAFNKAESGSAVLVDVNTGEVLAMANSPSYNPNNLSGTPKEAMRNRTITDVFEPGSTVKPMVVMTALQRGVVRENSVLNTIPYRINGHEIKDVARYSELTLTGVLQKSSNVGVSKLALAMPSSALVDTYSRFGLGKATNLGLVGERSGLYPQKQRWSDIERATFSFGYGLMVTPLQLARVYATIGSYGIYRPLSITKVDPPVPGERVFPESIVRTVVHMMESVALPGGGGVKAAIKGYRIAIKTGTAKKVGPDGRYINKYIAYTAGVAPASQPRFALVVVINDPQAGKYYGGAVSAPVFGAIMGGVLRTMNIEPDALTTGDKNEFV

O=C(NCCCN1CCN(C(=O)NC(C(=O)N[C@H]2Cc3ccc(F)c(C(=O)O)c3OB2O)c2cc(F)c(O)c(O)c2Cl)C(=O)C1=O)Nc1ccncc1 (stereo partly drawn) [Example 228, (3R)-3-(2-(2-chloro-5-fluoro-3,4-dihydroxyphenyl)-2-(2,3-dioxo-4-(3-(3-(pyridin-4-yl)ureido)propyl)piperazine-1-carboxamido)acetamido)-7-fluoro-2-hydroxy-3,4-dihydro-2H-benzo[e][1,2]oxaborinine-8-carboxylic acid]
EC50 [1]: < 10 µM | IC50 [2]: < 10 µM | MIC [3]: < 1 µg/mL | MIC [4]: 2 to 4 µg/mL (≈ 2.63 to 5.26 µM) | MIC [5]: 2 to 4 µg/mL (≈ 2.63 to 5.26 µM) | MIC [6, 13]: > 64 µg/mL | MIC [7, 14]: 1 to 2 µg/mL (≈ 1.32 to 2.63 µM) | MIC [8, 15]: > 64 µg/mL | MIC [9, 16]: 16 to 32 µg/mL (≈ 21.1 to 42.1 µM) | MIC [10, 17]: 16 to 32 µg/mL (≈ 21.1 to 42.1 µM) | MIC [11, 18]: > 64 µg/mL | MIC [12, 19]: > 64 µg/mL

O=C(NCCCN1CCN(C(=O)N[C@@H](C(=O)N[C@H]2Cc3ccc(F)c(C(=O)O)c3OB2O)c2cc(F)c(O)c(O)c2Cl)C(=O)C1=O)c1cccnc1 [Example 210, (R)-3-((R)-2-(2-chloro-5-fluoro-3,4-dihydroxyphenyl)-2-(4-(3-(nicotinamido)propyl)-2,3-dioxopiperazine-1-carboxamido)acetamido)-7-fluoro-2-hydroxy-3,4-dihydro-2H-benzo[e][1,2]oxaborinine-8-carboxylic acid]
EC50 [1]: < 10 µM | IC50 [2]: < 10 µM | MIC [3]: < 1 µg/mL | MIC [4]: < 1 µg/mL | MIC [5]: 8 to 16 µg/mL (≈ 10.7 to 21.5 µM) | MIC [6, 13]: 16 to 32 µg/mL (≈ 21.5 to 43 µM) | MIC [7, 14]: < 1 µg/mL | MIC [8, 15]: 16 to 32 µg/mL (≈ 21.5 to 43 µM) | MIC [9, 16]: 4 to 8 µg/mL (≈ 5.37 to 10.7 µM) | MIC [10, 17]: 16 to 32 µg/mL (≈ 21.5 to 43 µM) | MIC [11, 18]: > 64 µg/mL | MIC [12, 19]: 16 to 32 µg/mL (≈ 21.5 to 43 µM)

O=C(NCCCS(=O)(=O)N1CCN(C(=O)NC(C(=O)N[C@H]2Cc3ccc(F)c(C(=O)O)c3OB2O)c2cc(F)c(O)c(O)c2Cl)C1=O)c1nccs1 (stereo partly drawn) [Example 274, (3R)-3-(2-(2-chloro-5-fluoro-3,4-dihydroxyphenyl)-2-(2-oxo-3-((3-(thiazole-2-carboxamido)propyl)sulfonyl)imidazolidine-1-carboxamido)acetamido)-7-fluoro-2-hydroxy-3,4-dihydro-2H-benzo[e][1,2]oxaborinine-8-carboxylic acid]
EC50 [1]: < 10 µM | IC50 [2]: < 10 µM | MIC [3]: 2 to 4 µg/mL (≈ 2.54 to 5.08 µM) | MIC [4]: > 128 µg/mL | MIC [5]: 8 to 16 µg/mL (≈ 10.2 to 20.3 µM) | MIC [6, 20]: 16 to 32 µg/mL (≈ 20.3 to 40.7 µM) | MIC [7, 21]: 4 to 8 µg/mL (≈ 5.08 to 10.2 µM) | MIC [8, 22]: 16 to 32 µg/mL (≈ 20.3 to 40.7 µM) | MIC [9, 23]: 16 to 32 µg/mL (≈ 20.3 to 40.7 µM) | MIC [10, 24]: 16 to 32 µg/mL (≈ 20.3 to 40.7 µM) | MIC [11, 25]: > 64 µg/mL | MIC [12, 26]: 16 to 32 µg/mL (≈ 20.3 to 40.7 µM)

O=C(NCCS(=O)(=O)N1CCN(C(=O)NC(C(=O)N[C@H]2Cc3ccc(F)c(C(=O)O)c3OB2O)c2cc(F)c(O)c(O)c2Cl)C1=O)c1cccc(O)c1 (stereo partly drawn) [Example 261, (3R)-3-(2-(2-chloro-5-fluoro-3,4-dihydroxyphenyl)-2-(3-((2-(3-hydroxybenzamido)ethyl)sulfonyl)-2-oxoimidazolidine-1-carboxamido)acetamido)-7-fluoro-2-hydroxy-3,4-dihydro-2H-benzo[e][1,2]oxaborinine-8-carboxylic acid]
EC50 [1]: < 10 µM | IC50 [2]: < 10 µM | MIC [3]: 2 to 4 µg/mL (≈ 2.56 to 5.12 µM) | MIC [4]: 2 to 4 µg/mL (≈ 2.56 to 5.12 µM) | MIC [5]: 2 to 4 µg/mL (≈ 2.56 to 5.12 µM) | MIC [6, 20]: 16 to 32 µg/mL (≈ 20.5 to 40.9 µM) | MIC [7, 21]: 4 to 8 µg/mL (≈ 5.12 to 10.2 µM) | MIC [8, 22]: 16 to 32 µg/mL (≈ 20.5 to 40.9 µM) | MIC [9, 23]: 16 to 32 µg/mL (≈ 20.5 to 40.9 µM) | MIC [10, 24]: 4 to 8 µg/mL (≈ 5.12 to 10.2 µM) | MIC [11, 25]: > 64 µg/mL | MIC [12, 26]: 4 to 8 µg/mL (≈ 5.12 to 10.2 µM)

O=C(O)c1c(F)ccc2c1OB(O)[C@@H](NC(=O)C(NC(=O)N1CCN(CCNC(=O)[C@@H]3CCCN3)C1=O)c1cc(F)c(O)c(O)c1Cl)C2 (stereo partly drawn) [Example 248, (3R)-3-(2-(2-chloro-5-fluoro-3,4-dihydroxyphenyl)-2-(2-oxo-3-(2-((S)-pyrrolidine-2-carboxamido)ethyl)imidazolidine-1-carboxamido)acetamido)-7-fluoro-2-hydroxy-3,4-dihydro-2H-benzo[e][1,2]oxaborinine-8-carboxylic acid]
EC50 [1]: 10 to 50 µM | IC50 [2]: 10 to 50 µM | MIC [3]: 2 to 4 µg/mL (≈ 2.88 to 5.76 µM) | MIC [4]: 8 to 16 µg/mL (≈ 11.5 to 23 µM) | MIC [5]: 2 to 4 µg/mL (≈ 2.88 to 5.76 µM) | MIC [6, 20]: 16 to 32 µg/mL (≈ 23 to 46.1 µM) | MIC [7, 21]: 4 to 8 µg/mL (≈ 5.76 to 11.5 µM) | MIC [8, 22]: 16 to 32 µg/mL (≈ 23 to 46.1 µM) | MIC [9, 23]: 16 to 32 µg/mL (≈ 23 to 46.1 µM) | MIC [10, 24]: 4 to 8 µg/mL (≈ 5.76 to 11.5 µM) | MIC [11, 25]: 16 to 32 µg/mL (≈ 23 to 46.1 µM) | MIC [12, 26]: 16 to 32 µg/mL (≈ 23 to 46.1 µM)
